Tests used:
[1] = tested on: M. tuberculosis XDR strain; format: in vivo, Mycobacterium tuberculosis
[2] = tested on: M. tuberculosis XDR strain; format: cell-based, Mycobacterium tuberculosis; conditions: infected Raw 264.7 cells, 3 days; effect only at this very high concentration
M. tuberculosis H37Rv = assay: In vitro macrophage infection model, H37Rv, CFU analysis; format: cell-based, Mycobacterium tuberculosis; conditions: infected Raw 264.7 cells, 3 days
[3] = tested on: M. tuberculosis XDR strain; format: in vivo, Mycobacterium tuberculosis; conditions: latent model, 30 mg/kg
M. tuberculosis = assay: Lung granuloma formation and immune response analysis in both tuberculosis mouse models; format: in vivo, Mycobacterium tuberculosis

Compound: Lactobacillus
- mortality / survival until the end of the experiment ([1]; Balb/c mice, high-dose XDR lung inhalation, probiotics by lung inhalation): died

Compound: CO[C@H]1/C=C/O[C@@]2(C)Oc3c(C)c(O)c4c(O)c(c(/C=N/N5CCN(C)CC5)c(O)c4c3C2=O)NC(=O)/C(C)=C\C=C\[C@H](C)[C@H](O)[C@@H](C)[C@@H](O)[C@@H](C)[C@H](OC(C)=O)[C@@H]1C [RIF, rifampicin]
- concentration with inhibitory effect against XDR strains [2]: 100 µg/mL
- survival rate ([1]; in vivo): 32.2%

Compound: NNC(=O)c1ccncc1 [INH, isoniazid]
- concentration showing significant effects against H37Rv (M. tuberculosis H37Rv): 1 μg/mL or 10 μg/mL
- concentration with inhibitory effect against XDR strains [2]: 100 µg/mL
- lung species diversity (Shanon-based alpha diversity) ([1]; in vivo): worsened the severity
- occupancy of M. tuberculosis in the lungs (16S rRNA gene-based lung metagenomics) compared to the infected control group ([1]; in vivo): did not decrease
- survival rate ([1]; in vivo): 16.6%
- effect on number of M. tuberculosis in the lungs [3]: significantly reduced
- granuloma formation in the lungs compared to infected control mice (M. tuberculosis): no significant reduction

Reference: patent publication US20250127828A1, “BACILLUS […] AND COMPOSITION FOR PREVENTING, TREATING, OR IMPROVING TU[…] SAME” (priority 2023, published 2025)
